For five compounds, EC50 and IC50 results are on record in ChEMBL document CHEMBL1130989, “Design and synthesis of bio-isosteres of thymidine triphosphate” (Bioorg Med Chem Lett, 1998).

The structures appear in SMILES notation. pEC50, pIC50: −log10 of the molar value. Where only a bound is given, the exact number is not on record here.

For experiment [1], the system named is CCRF-CEM. Nature of the experiment: Dose required for no significant anti-HIV activity against HIV-1 in human lymphocyte CEM cells. Type of experiment: functional, cell-based.
In experiment [2] the test system is CCRF-CEM. In words: Dose required for no significant anti-HIV activity against HIV-2 in human lymphocyte CEM cells. Type of experiment: functional, cell-based.
In experiment [3] the target is Human immunodeficiency virus type 1 reverse transcriptase (Human immunodeficiency virus 1, UniProt Q72547). In words: Concentration required for no significant inhibitory activity against HIV-1 reverse transcriptase.

Regarding `Cc1cn(C2C=CC(CNC(=O)CC3(C)CC(O)CN3C(=O)OC(C)(C)C)O2)c(=O)[nH]c1=O` (stereo not given), the pEC50 in the experiment on CCRF-CEM [1] and with CCRF-CEM [2] was under 3.70 throughout. In experiment [3], the pIC50 (in general, the IC50 on a negative log10 scale, so that one unit is a factor of ten) was under 3.30.

For `Cc1cn(C2CC(O[Si](C)(C)C(C)(C)C)C(CNC(=O)CC3(C)CC(O[Si](c4ccccc4)(c4ccccc4)C(C)(C)C)CN3C(=O)OC(C)(C)C)O2)c(=O)[nH]c1=O` (stereo not given), the pEC50 in the experiment with CCRF-CEM [1] and with CCRF-CEM [2] was under 3.70 each time. The pIC50 in experiment [3] is under 3.30.

Regarding `Cc1cn(C2C=CC(CNC(=O)CC3(C)CC(O)CN3)O2)c(=O)[nH]c1=O` (stereo not given), the negative logarithm of the EC50 (pEC50) with CCRF-CEM [1] and in the experiment with CCRF-CEM [2] was under 3.70 throughout. In experiment [3], this compound showed a pIC50 of under 3.30.

In the case of `Cc1cn(C2CC(O)C(CNC(=O)CC3(C)CC(O)CN3)O2)c(=O)[nH]c1=O` (stereo not given), the pEC50 with CCRF-CEM [1] and in the experiment with CCRF-CEM [2] was under 3.70 each time. This compound also gave a pIC50 in experiment [3] of under 3.30.

Consider `Cc1cn(C2C=CC(CNC(=O)CC3(C)CC(O[Si](c4ccccc4)(c4ccccc4)C(C)(C)C)CN3C(=O)OC(C)(C)C)O2)c(=O)[nH]c1=O` (stereo not given), for which the pEC50 in the experiment with CCRF-CEM [1] and in the experiment on CCRF-CEM [2] was under 3.70 each time. The pIC50 in experiment [3] was under 3.30.
